Measurements published in patent EP0013742A1, “Substituted sulfonic acid anilides, their preparation and use” (BASF Aktiengesellschaft, priority 1979, dated 1980).

Legend:
Rasen = test: Effect on grass/lawn, vegetation test in Mitscherlich pots (Beispiel B); format: in vivo; settings: for 1. Schnitt Pflanzenhöhe relativ / 1. Schnitt Pflanzenhöhe cm: 20 days after treatment; for 1. Schnitt Pflanzenhöhe relativ / 2. Schnitt Pflanzenhöhe relativ: untreated control = 100; for 2. Schnitt Pflanzenhöhe cm: regrowth over 4 weeks after 1st cut (after-effect); for 2. Schnitt Pflanzenhöhe relativ: regrowth over 4 weeks after 1st cut; for 1. Schnitt Pflanzenhöhe cm: sprayed at 4 cm height
Source text: In einem Vegetationsversuch in Mitscherlichgefäßen wurde auf einem lehmigen Sandboden Rasen der folgenden Standard--Mischung angesät: Agrostis tenuis 10 %, Cynosurus cristatus 10 %, Festuca rubra 15 %, Lolium perenne 35 % und Poa pratensis 30 %. Die Düngung wurde mit 1,5 g N als Ammonnitrat und 1 ^g P205 als sec. Kaliumphosphat vorgenommen. Nach 2 vorangegangenen Schnitten wurden die Wirkstoffe in verschiedenen Aufwandmengen bei einer Wuchshöhe von 4 cm in üblicher Weise gespritzt. 20 Tage nach der Behandlung wurde die Wuchshöhe bestimmt; nach erfolgtem 1. Schnitt wurde der Wiederaufwuchs über 4 Wochen bis hin zum 2. Schnitt beobachtet und ebenfalls Längenmessungen durchgeführt, um die Nachwirkung zu überprüfen. Gegenüber der Kontrolle reagierten die Pflanzen aus den Behandlungsreihen mit sehr starken Kürzungen. Die Nachwirkung ist besser zu beurteilen als bei der zum Vergleich herangezogenen bekannten Substanz, wie nachstehende Tabelle zeigt.

Sommerweizen (Kolibri) = test: Growth height reduction in cereals, greenhouse, foliar spray (Beispiel A); format: in vivo, Weizen (Kolibri); settings: 18 days growth; for Pflanzenhöhe cm: sprayed at 10 cm plant height, 100 plants measured; for Pflanzenhöhe relativ: untreated control = 100
Source text: (§1) Im Gewächshaus wurden die Getreidearten Weizen (Kolibri) und Gerste (Union) in Kunststoffschalen von 11,5 cm Durch- messer in Torfkultursubstrat, welches ausreichend mit Nährstoffen versorgt war, eingesät. Die Wirkstoffe wurden in unterschiedlichen Aufwandmengen über das Blatt zugeführt. Die Applikation erfolgte bei einer Wuchshöhe der Pflanzen von 10 cm in üblicher Weise durch Spritzen.
(§2) Während der Wachstumszeit von 18 Tagen zeigten die behandelten Pflanzen gegenüber der unbehandelten Kontrolle ein deutlich geringeres Längenwachstum, was durch die abschließenden Längenmessungen bestätigt werden konnte. Hierbei wurden von jeder Behandlungsreihe 100 Pflanzen gemessen.

Sommergerste (Union) = test: as above; format: in vivo, Gerste (Union); settings: for Pflanzenhöhe cm: sprayed at 10 cm plant height, 18 days growth; for Pflanzenhöhe relativ: untreated control = 100
Source text: as §1, §2

SMILES	1. Schnitt Pflanzenhöhe relativ (Rasen; Aufwandmenge 0,5 kg/ha)	2. Schnitt Pflanzenhöhe cm (Rasen; Aufwandmenge 0,5 kg/ha)	2. Schnitt Pflanzenhöhe relativ (Rasen; Aufwandmenge 0,5 kg/ha)	1. Schnitt Pflanzenhöhe cm (Rasen; Aufwandmenge 0,5 kg/ha)	1. Schnitt Pflanzenhöhe relativ (Rasen; Aufwandmenge 0,75 kg/ha)	2. Schnitt Pflanzenhöhe cm (Rasen; Aufwandmenge 0,75 kg/ha)	2. Schnitt Pflanzenhöhe relativ (Rasen; Aufwandmenge 0,75 kg/ha)	1. Schnitt Pflanzenhöhe cm (Rasen; Aufwandmenge 0,75 kg/ha)	Pflanzenhöhe cm (Sommerweizen (Kolibri); Aufwandmenge 1,5 kg/ha)	Pflanzenhöhe relativ (Sommerweizen (Kolibri); Aufwandmenge 1,5 kg/ha)	Pflanzenhöhe cm (Sommerweizen (Kolibri); Aufwandmenge 6,0 kg/ha)	Pflanzenhöhe relativ (Sommerweizen (Kolibri); Aufwandmenge 6,0 kg/ha)	Pflanzenhöhe cm (Sommergerste (Union); Aufwandmenge 0,25 kg/ha)	Pflanzenhöhe relativ (Sommergerste (Union); Aufwandmenge 0,25 kg/ha)	Pflanzenhöhe cm (Sommergerste (Union); Aufwandmenge 0,75 kg/ha)	Pflanzenhöhe relativ (Sommergerste (Union); Aufwandmenge 0,75 kg/ha)	Pflanzenhöhe cm (Sommergerste (Union); Aufwandmenge 1,50 kg/ha)	Pflanzenhöhe relativ (Sommergerste (Union); Aufwandmenge 1,50 kg/ha)	Pflanzenhöhe cm (Sommergerste (Union); Aufwandmenge 3,00 kg/ha)	Pflanzenhöhe relativ (Sommergerste (Union); Aufwandmenge 3,00 kg/ha)
CC(=O)Nc1cc(N(C#N)S(=O)(=O)C(F)(F)F)c(C)cc1C [Beispiel 1, 5-Acetamido-N -cyano-2,4-dimethyl-trifluormethansulfonsäureanilid]	38,5	8,0 cm	72,7	5,5 cm	31,5	7,0 cm	63,6	4,5 cm	13,0 cm	48,5	12,6 cm	46,6								
CC(=O)Nc1ccc(C)c(N(C#N)S(=O)(=O)C(F)(F)F)c1 [Beispiel 67]	97,4	11,0 cm	100	14,0 cm	87,4	9,0 cm	81,8	12,5 cm	13,5 cm	50,4	12,0 cm	44,8								
CC(=O)Nc1ccc(C)c(NS(=O)(=O)C(F)(F)F)c1 [Fluoridamid, 5-Acetam.ido-2-methyl-trifluormethansulfonsäureanilid, reference compound]	94,4	11,0 cm	100	13,5 cm	87,4	10,0 cm	90,9	12,5 cm	17,0 cm	63,4	15,0 cm	56,0								
CC(=O)Nc1cc(NS(=O)(=O)C(F)(F)F)c(C)cc1C [Mefluidide, 5-Acetamido-2,4--dimethyl-trifluormethansulfonsäureanilid]													27,0 cm	96,4	18,0 cm	64,3	17,5 cm	62,5	16,0 cm	57,1
